For 65 compounds, EC50 and percent span inhibition results are on record in PubChem BioAssay AID1324 (NMMLSC, 2008).

pEC50: −log10 of the molar value. Activity calls are given as the source filed them. How the calls were made is not given here.

One assay concerns the target glutathione S-transferase (GST-GSH binding). The experiment in a line: GST–glutathione interaction disruption – biochemical, multiplex beads, flow cytometry, HPSMTB buffer, profiling panel (AID 1324).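 Further: glutathione beads loaded with GST-green fluorescent protein and no fluorescent Bim peptide.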 Particulars: multiplex bead flow cytometry, MCF.
Turning to `NC(=O)c1sc2nc3c(c(-c4ccco4)c2c1N)CCC3`, the EC50 result is “inactive”.
Take `COc1ccccc1Nc1nc(-c2c(C)nc3ncccn23)cs1`: the EC50 entry is “inactive”.
As for `O=S1(=O)N=C(N(CCO)/N=C/c2ccncc2)c2ccccc21`, the EC50 entry is “inactive”.
For the compound `Cc1nc2ncccn2c1-c1csc(Nc2ccc(O)cc2)n1`, the negative-log EC50 (pEC50) is 6.16.
For `COc1ccc(C2=Nn3c(nnc3-c3ccco3)SC2)cc1OC`, the negative-log EC50 (pEC50) is 5.34.
With `O=C1c2ccccc2-c2onc3ccc(NCc4ccco4)c1c23`, the EC50 result is “inactive”.
As to `Cc1cc(C)nc(SCc2cc(=O)c(OC(=O)c3ccc(Cl)c([N+](=O)[O-])c3)co2)n1`, the negative logarithm of the EC50 (pEC50) is 5.21.

Still in this assay, the particulars now being: multiplex bead flow cytometry, MCF, hits give high values, concentration not given here.
As to `COc1cccc2c1C(=O)C=C(C)C2=O`, the percent span inhibition result is “inactive”.
For the compound `Cn1c(=O)c2c(nc(NCCO)n2CCc2ccccc2)n(C)c1=O`, the percent span inhibition result is “inactive”.
As to `CCOC(=O)CSC1=NC(=O)/C(=C/c2ccc(Br)cc2)S1`, the percent span inhibition result is “inactive”.
As to `Cn1c(OCc2cccnc2)nc2c1c(=O)n(Cc1ccccc1)c(=O)n2C`, the percent span inhibition entry was “inactive”.
As for `CCN1/C(=C/C(C)=C/c2sc3ccccc3[n+]2CC)Sc2ccccc21`, the percent span inhibition result is “inactive”.
On to `COC(=O)c1ccc(/C=N/NC(=O)CC(=O)NCc2cccnc2)cc1`, for which the percent span inhibition result was “inactive”.
In the case of `COc1cc(/C=C2/NC(=O)N(Cc3ccccc3F)C2=O)cc(OC)c1O`, the percent span inhibition result is “inactive”.
Take `Cc1ccc(-c2cc(-c3ccc4c(c3)OCO4)c(C#N)c(N)n2)o1`: the percent span inhibition entry is “inactive”.
Take `COc1cccc(NC(=O)CSc2nncn2N)c1`: the percent span inhibition entry is “inactive”.
Same read-out and setting: the same measure for `c1cncc(-c2nnc3n2N=C(c2cccs2)CS3)c1`: “inactive”; for `COc1ccc(S(=O)(=O)NCCSc2ccccc2)cc1OC`: “inactive”; for `COC(=O)c1c(C(=O)OC)c2cccc3cc(-c4ccccc4)c4ccc1c4n32`: “inactive”.
On the same count and under the same terms, the same measure for `CCOC(=O)c1nc(Nc2ccc(C(=O)OC)cc2)c2ccccc2n1`: “inactive”; for `Clc1ccc2c(N/N=C/c3ccccc3Br)ccnc2c1`: “inactive”; for `Cc1ccc(S(=O)(=O)N(C)CC(=O)N2CCc3ccccc32)cc1`: “inactive”.
As for `CCOc1c(Cl)cc(CNc2ccc(N3CCCC3)cc2)cc1OC`, the percent span inhibition result was “inactive”.
Consider `C/C(=N/NC(=O)c1cc(O)c(O)c(O)c1)c1ccc([N+](=O)[O-])cc1`, for which the percent span inhibition result was “inactive”.
Turning to `O=C(Nc1ccccn1)c1cc2ccccc2o1`, the percent span inhibition result is “inactive”.
Regarding `O=C1c2ccccc2C(=O)N1c1cccc2cccnc12`, the percent span inhibition result is “inactive”.
Turning to `COc1ccc(C(=O)/C=C/c2cc(OC)c(O)c(OC)c2)c(F)c1`, the percent span inhibition entry was “inactive”.
For the compound `Cc1ccc(-c2ccc(CCC(=O)O)n2NC(=O)c2cccs2)cc1`, the percent span inhibition result is “inactive”.
For the compound `O=C(O)CCN1C(=O)/C(=C\c2ccc(-c3nc4ccccc4s3)o2)SC1=S`, the percent span inhibition entry is “inactive”.
With `COc1ccc(N2C(=O)/C(=C/c3cccs3)NC2=S)cc1`, the percent span inhibition entry was “inactive”.
As to `O=C1C(Cl)=C(Nc2ccccc2O)C(=O)N1c1ccccc1`, the percent span inhibition entry was “inactive”.
For the compound `Cc1c(Cc2ccccc2)sc(N)c1C(N)=O`, the percent span inhibition result was “inactive”.
With `Nc1c(C(=O)NCC2CCCO2)sc2nc3c(c(-c4ccco4)c12)CC/C3=C\c1ccco1` (stereo not given), the percent span inhibition result is “inactive”.
In the case of `O=[N+]([O-])c1c(NCCCO)cc(Sc2nc3ccccc3s2)c2nonc12`, the percent span inhibition entry was “inactive”.
`CC(=O)OCCNc1cc(Sc2nc3ccccc3[nH]2)c2nonc2c1[N+](=O)[O-]`: the percent span inhibition result is “inactive”.
As to `Cc1csc(Nc2ccccc2C(F)(F)F)n1`, the percent span inhibition result was “inactive”.
Regarding `COc1ccc(NC(=O)c2ccc3c(c2)NC(=O)CS3)cc1S(=O)(=O)Nc1ccc(Br)cc1`, the percent span inhibition entry was “inactive”.
As for `Cc1ccc(C(NC(=O)C(C)C)c2cc([N+](=O)[O-])c3cccnc3c2O)cc1` (stereo not given), the percent span inhibition result was “inactive”.
In the case of `CCCC(=O)OCCNc1cc(Sc2nccn2C)c2nonc2c1[N+](=O)[O-]`, the percent span inhibition result was “inactive”.
In the case of `OC(CNC1CCCCC1)COCCOc1ccc(Br)cc1` (stereo not given), the percent span inhibition result is “inactive”.
Consider `CCCc1nnc2n1N=C(c1ccc(-c3cc(Cl)ccc3Cl)o1)CS2`, for which the percent span inhibition entry is “inactive”.
Consider `O=C(O)c1ccccc1NSc1ccccc1[N+](=O)[O-]`, for which the percent span inhibition result is “inactive”.
For `CCN(CC)c1ccc(NC(=O)COc2ccccc2C)cc1S(=O)(=O)Nc1ccccc1OC`, the percent span inhibition result is “inactive”.
In the case of `COCCNc1nc(=S)[nH]c2cc(OC)c(OC)cc12`, the percent span inhibition result was “inactive”.
Still for that read-out and setting: the same measure for `FC(F)(F)c1ccc2c(c1)C1C=CCC1C(c1ccncc1)N2` (stereo not given): “inactive”; for `CC1CCN(C2(O)C(=O)Nc3ccc(Br)cc32)CC1` (stereo not given): “inactive”.
Turning to `Cc1c(NC2=C(Cl)C(=O)N(c3ccccc3)C2=O)c(=O)n(-c2ccccc2)n1C`, the percent span inhibition result is “inactive”.
Same read-out and setting: the same measure for `Cc1ccc(OCc2cn3cccnc3n2)cc1`: “inactive”.
Take `Cc1ccc(-c2cc(-c3ccccc3Cl)c(C#N)c(N)n2)o1`: the percent span inhibition entry was “inactive”.
Still for that read-out and setting: the same measure for `CCOC(=O)c1cc2c(=O)n3ccccc3nc2n(Cc2ccco2)c1=NC(=O)c1ccccc1OC`: “inactive”.
Consider `CCN1C(=O)/C(=C/C=C2\C=CN(CC)c3ccccc32)SC1=S`, for which the percent span inhibition entry is “inactive”.
Regarding `CCc1cccc(NC(=O)COc2ccccc2)c1`, the percent span inhibition result is “inactive”.
As for `O=C(NC1=C(NC2CCS(=O)(=O)C2)C(=O)c2ccccc2C1=O)c1ccccc1` (stereo not given), the percent span inhibition result is “inactive”.
Consider `O=C1NC(=S)S/C1=C/c1ccc(N2CCOCC2)o1`, for which the percent span inhibition result is “inactive”.
As for `c1ccc(Nc2nc(-c3ccncc3)cs2)cc1`, the percent span inhibition result was “inactive”.
As to `Cn1c(N)c(C(=O)COC(=O)c2cc(-c3ccco3)nc3ccccc23)c(=O)n(C)c1=O`, the percent span inhibition entry is “inactive”.
Consider `C/C(=N\NC(=O)COc1ccc(C#N)cc1)c1ccccc1OC(F)F`, for which the percent span inhibition entry was “inactive”.
Regarding `CC(=O)N1CCN(C(=O)c2ccc(-n3c(C)ccc3C)cc2)CC1`, the percent span inhibition result was “inactive”.
Still for that read-out and setting: the same measure for `COc1ccc(N2C(=O)C(Cl)=C(Nc3c(C)n(C)n(-c4ccccc4)c3=O)C2=O)cc1`: “inactive”; for `O=C(/C=C/c1ccccc1Cl)c1ccccc(=O)c1O`: “inactive”.
As for `Cc1cc(-c2nnc3n2N=C(c2ccc(-c4ccccc4)cc2)CS3)n[nH]1`, the percent span inhibition entry was “inactive”.
The same measure, in the same setting: the same measure for `CNC(=S)N/N=C/C1=CCC2CC1C2(C)C` (stereo not given): “inactive”; for `CNC(=S)N(Cc1cccs1)Cc1cc2ccc(OC)cc2[nH]c1=O`: “inactive”.
For the compound `CCOc1ccccc1/C=N/NC(=O)CNC(=O)COc1ccccc1`, the percent span inhibition result is “inactive”.
The same measure, in the same setting: the same measure for `COc1cc2[nH]c(=S)nc(NCCCOC(C)C)c2cc1OC`: “inactive”.
